Assay results as given in patent publication US7176205B2, “Bi-pyridinyl derivatives as NK-1 antagonists” (Hoffmann-La Roche Inc., priority 2005, dated 2007).
Converted amounts (≈) assume the structure as drawn.

Assays:
[1] = Equilibrium solubility; type: physicochemical; conditions: citrate buffer, aqueous buffer, thermodynamic from solid; pH 4.2, 0.15 M Citrat-buffer, 21° C.
Method: Method Description Equilibrium Solubility
Equilibrium solubility values were determined at pH 4.2 (0.15 M Citrat-buffer). A known amount of drug, generally 1–2 mg, was added to 250 μl of buffer (glass tubes) and the resulting suspension was stirred for 2 h (21° C.), after 5 minutes of sonification. The pH of the solution was checked and corrected if necessary (in case of pH correction, the solution was once more shaken and equilibrated) and after 24 h the suspension was filtered through a 0.65-μm filter. The filtered solution was then assayed by HPLC to determine the drug concentration. In cases where the drug had completely dissolved in the buffer, the value for equilibrium solubility was assumed to be higher than the value determined by HPLC and was reported as such. Stock solutions (˜1 mg/ml) in DMSO were used in the preparation of a calibration curve in the related buffer using HPLC analytics.

[2] = target: T1, human NK-1 receptor (Homo sapiens, UniProt P25103); test: NK-1 receptor binding, [3H]substance P displacement; conditions: human NK-1 receptors in CHO cells, [3H]substance P 0.6 nM; read-out: pKi(NK-1) (converted)
T1 construct: expressed in transfected cells; host or cells: CHO cells infected using the Semliki virus expression system; membrane suspension
Method: The affinity of test compounds for the NK-1 receptor was evaluated at human NK-1 receptors in CHO cells infected with the human NK-1 receptor (using the Semliki virus expression system) and radiolabelled with [^3H]substance P (final concentration 0.6 nM). Binding assays were performed in HEPES buffer (50 mM, pH 7.4) containing BSA (0.04%) leupeptin (8 μg/ml), MnCl2 (3 mM) and phosphoramidon (2 μM). Binding assays consisted of 250 μl of membrane suspension (1.25×10^5 cells/assay tube), […] of buffer of displacing agent and 125 μl of [^3H]substance P. Displacement curves were determined with at least seven concentrations of the compound. The assay tubes were incubated for 60 min at room temperature after which time the tube contents were rapidly filtered under vacuum through GF/C filters presoaked for 60 min with PEI (0.3%) with 2×2 ml washes of HEPES buffer (50 mM, pH 7.4). The radioactivity retained on the filters was measured by scintillation counting. All assays were performed in triplicate in at least 2 separate experiments.

T1 sequence (P25103 whole entry): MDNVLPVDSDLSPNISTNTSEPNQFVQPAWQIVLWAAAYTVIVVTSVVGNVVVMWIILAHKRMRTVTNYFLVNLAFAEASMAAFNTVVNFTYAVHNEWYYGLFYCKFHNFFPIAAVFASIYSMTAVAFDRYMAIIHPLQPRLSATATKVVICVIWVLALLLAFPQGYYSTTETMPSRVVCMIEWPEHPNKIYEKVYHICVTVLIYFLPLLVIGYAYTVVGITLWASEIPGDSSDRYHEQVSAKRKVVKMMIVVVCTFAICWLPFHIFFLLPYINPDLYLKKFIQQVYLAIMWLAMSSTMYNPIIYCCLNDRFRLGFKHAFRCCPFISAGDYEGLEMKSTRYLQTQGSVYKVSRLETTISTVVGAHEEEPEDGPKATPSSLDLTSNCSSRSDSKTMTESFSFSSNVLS

Row | SMILES | solubility at 24 h [1] [µg/mL] | Ki [2] [nM]
1 | Cc1ccccc1-c1cc(N2CCN(C)CC2)ncc1C(=O)N(C)Cc1cc(C(F)(F)F)cc(C(F)(F)F)c1 [EP 1 035 115A1example 12, reference compound] | 495 (≈ 0.899 mM) | –
2 | Cc1ccccc1-c1cc(N2CCN(C)CC2)ncc1N(C)C(=O)C(C)(C)c1cc(C(F)(F)F)cc(C(F)(F)F)c1 [EP 1 035 115A1example 14, reference compound] | 26 (≈ 0.0449 mM) | 0.977
3 | Cc1ncccc1-c1cc(N2CCN(C)CC2)ncc1N(C)C(=O)C(C)(C)c1cc(C(F)(F)F)cc(C(F)(F)F)c1 [Example 2, 2-(3,5-Bis-trifluoromethyl-phenyl)-N-methyl-N-[2-methyl-6′-(4-methyl-piperazin-1-yl)-[3,4′]bipyridinyl-3′-yl]-isobutyramide] | 7500 (≈ 12.9 mM) | 1.1
4 | Cc1ncccc1-c1cc(N2CCN(C)CC2)ncc1C(=O)N(C)Cc1cc(C(F)(F)F)cc(C(F)(F)F)c1 [Example 1, 2-Methyl-6′-(4-methyl-piperazin-1-yl)-[3,4′]bipyridinyl-3′-carboxylic acid (3,5-bis-trifluoromethyl-benzyl)-methyl-amide] | 13700 (≈ 24.8 mM) | 2.75
